Active and inactive are the calls of the source. The calls are words filed in the database; no cut-off is given here.
How the values were obtained:
[1] = target: T1, Keap1/Nrf2 (Homo sapiens) (UniProt Q16236+Q14145); experiment: Inhibition of Nrf2:Keap1 interaction (unknown origin) assessed as thermodynamic enthalpy changes by MR121 dye-labeled Nrf2-derived peptide based tracer displacement assay; type: protein assay
[2] = target: T1, Keap1/Nrf2 (Homo sapiens); experiment: Inhibition of Nrf2:Keap1 interaction (unknown origin) assessed as induction of negative TdeltaS values by MR121 dye-labeled Nrf2-derived peptide based tracer displacement assay; type: protein assay

T1 sequence (Q14145 whole entry, looked up): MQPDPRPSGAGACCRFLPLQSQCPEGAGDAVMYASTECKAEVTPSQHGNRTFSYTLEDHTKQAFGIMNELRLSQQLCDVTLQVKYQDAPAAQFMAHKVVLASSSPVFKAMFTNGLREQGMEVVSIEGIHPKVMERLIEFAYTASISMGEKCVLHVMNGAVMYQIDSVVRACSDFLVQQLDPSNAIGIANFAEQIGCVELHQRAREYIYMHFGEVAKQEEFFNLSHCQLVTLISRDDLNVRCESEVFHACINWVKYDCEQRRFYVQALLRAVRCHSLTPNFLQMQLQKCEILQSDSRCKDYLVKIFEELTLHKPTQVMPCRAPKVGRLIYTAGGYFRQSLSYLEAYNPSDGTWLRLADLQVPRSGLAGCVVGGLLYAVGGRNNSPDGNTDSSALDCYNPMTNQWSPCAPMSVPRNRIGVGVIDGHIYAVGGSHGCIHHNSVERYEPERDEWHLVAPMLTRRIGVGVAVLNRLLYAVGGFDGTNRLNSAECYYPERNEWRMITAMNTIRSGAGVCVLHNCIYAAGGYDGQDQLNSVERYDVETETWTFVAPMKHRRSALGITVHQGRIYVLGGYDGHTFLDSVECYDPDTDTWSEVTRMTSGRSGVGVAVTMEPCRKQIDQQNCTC
T1 sequence (Q16236 whole entry, looked up): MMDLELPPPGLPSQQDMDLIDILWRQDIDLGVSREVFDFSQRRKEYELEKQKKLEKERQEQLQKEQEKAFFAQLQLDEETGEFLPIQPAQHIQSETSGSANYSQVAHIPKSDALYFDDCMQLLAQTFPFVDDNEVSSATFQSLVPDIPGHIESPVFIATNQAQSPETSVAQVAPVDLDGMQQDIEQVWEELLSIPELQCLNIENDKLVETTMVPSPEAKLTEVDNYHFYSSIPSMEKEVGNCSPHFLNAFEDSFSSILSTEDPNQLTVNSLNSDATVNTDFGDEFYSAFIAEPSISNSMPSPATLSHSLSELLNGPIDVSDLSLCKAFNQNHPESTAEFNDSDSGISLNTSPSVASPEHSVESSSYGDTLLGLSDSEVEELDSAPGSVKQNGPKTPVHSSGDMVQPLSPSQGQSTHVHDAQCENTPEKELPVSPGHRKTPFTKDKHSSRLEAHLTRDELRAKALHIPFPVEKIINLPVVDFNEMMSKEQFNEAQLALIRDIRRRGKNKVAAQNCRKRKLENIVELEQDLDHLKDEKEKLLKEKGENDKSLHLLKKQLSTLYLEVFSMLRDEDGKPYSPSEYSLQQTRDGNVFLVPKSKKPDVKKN

| deltaG [1] [kcal/mol] | Activity [2] | SMILES |
| --- | --- | --- |
| -7.84 | Active | COc1ccc(S(=O)(=O)Nc2ccc(NS(=O)(=O)c3ccc(OC)cc3)c3ccccc23)cc1 |
| -5.93 | Active | Cc1ccc(S(=O)(=O)C2CN=C(SCC(=O)Nc3ccccc3C(F)(F)F)NC2=O)c(C)c1 (centres undefined) |

From ChEMBL document CHEMBL3769362, “Thermodynamic profiling of inhibitors of Nrf2:Keap1 interactions” (Bioorg Med Chem Lett, 2016)
